Patent US7138361B2, “Herbicidal heterocycles” (E. I. du Pont de Nemours and Company, priority 2000, dated 2006)

Legend:
Format in all cases: in vivo
[1] = system: duck salad (Heteranthera limosa); test: Test C flooded paddy test; conditions: for Ducksalad plant response rating: Flooded Paddy, scale 0 to 100, 0 no effect, 100 complete control; for Plant response rating, Ducksalad: flooded paddy test, scale 0 to 100 (0 no effect, 100 complete control)
Method in brief: (§1)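 Each species was cultivated to 2 leaves in flooded paddy pots, then treated. After a greenhouse period of 12–14 days, the plants were scored visually relative to controls from 0 (no effect) to 100 (complete control).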

[2] = system: smallflower flatsedge (Cyperus difformis); test: Test C flooded paddy test; conditions: for Flatsedge plant response rating: Flooded Paddy, scale 0 to 100, 0 no effect, 100 complete control; for Plant response rating, Flatsedge: flooded paddy test, scale 0 to 100 (0 no effect, 100 complete control)
Method in brief: as §1

[3] = system: barnyardgrass (Echinochloa crus-galli); test: Test C flooded paddy test; conditions: for Barnyardgrass plant response rating: Flooded Paddy, scale 0 to 100, 0 no effect, 100 complete control; for Plant response rating, Barnyardgrass: flooded paddy test, scale 0 to 100 (0 no effect, 100 complete control)
Method in brief: as §1

[4] = system: giant foxtail (Setaria faberii); test: Test C preemergence; conditions: for Plant response rating, Foxtail, Giant: scale 0 to 100, 0 no effect, 100 complete control; for Plant response rating (0 to 100), Foxtail, Giant: visual evaluation after 12 to 14 days
Source text: (§2) Seeds of plant species selected from bermudagrass (Cynodon dactylon), Surinam grass (Brachiaria decumbens), cocklebur (Xanthium strumarium), corn (Zea mays), crabgrass (Digitaria sanguinalis), woolly cupgrass (Eriochloa villosa), giant foxtail (Setaria faberii), goosegrass (Eleusine indica), johnsongrass (Sorghum halepense), kochia (Kochia scoparia), lambsquarters (Chenopodium album), morningglory (Ipomoea hederacea), yellow nutsedge (Cyperus esculentus), pigweed (Amaranthus retroflexus), common ragweed (Ambrosia elatior), soybean (Glycine max) and velvetleaf (Abutilon theophrasti) were planted and treated preemergence with test chemicals formulated in a non-phytotoxic solvent mixture which included a surfactant.
(§3) At the same time, plants selected from these crop and weed species and also winter barley (Hordeum vulgare), blackgrass (Alopecurus myosuroides), canary grass (Phalaris minor), chickweed (Stellaria media), downy brome (Bromus tectorum), green foxtail (Setaria viridis), Italian ryegrass (Lolium multiflorum), wheat (Triticum aestivum), wild oat (Avena fatua) and windgrass (Apera spica-venti) were treated with postemergence applications of some of the test chemicals formulated in the same manner. Plants ranged in height from 2 to 18 cm (1- to 4-leaf stage) for postemergence treatments. Plant species in the flooded paddy test consisted of rice (Oryza saliva), smallflower flatsedge (Cyperus difformis), duck salad (Heteranthera limosa) and barnyardgrass (Echinochloa crus-galli) grown to the 2-leaf stage for testing. Treated plants and controls were maintained in a greenhouse for 12 to 14 days, after which time all species were compared to controls and visually evaluated. Plant response ratings, summarized in Table C, are based on a scale of 0 to 100 where 0 is no effect and 100 is complete control. A dash (-) response means no test result.

[5] = system: velvetleaf (Abutilon theophrasti); test: Test C preemergence; conditions: preemergence; for Plant response rating, Velvetleaf: scale 0 to 100, 0 no effect, 100 complete control
Source text: as §2, §3

[6] = system: common ragweed (Ambrosia elatior); test: Test C preemergence; conditions: preemergence; for Plant response rating, Ragweed, Common: scale 0 to 100, 0 no effect, 100 complete control
Source text: as §2, §3

[7] = system: pigweed (Amaranthus retroflexus); test: Test C preemergence; conditions: preemergence; for Plant response rating, Pigweed: scale 0 to 100, 0 no effect, 100 complete control
Source text: as §2, §3

[8] = system: corn (Zea mays); test: Test C preemergence; conditions: for Plant response rating, Corn: scale 0 to 100, 0 no effect, 100 complete control; for Plant response rating (0 to 100), Corn: visual evaluation after 12 to 14 days
Source text: as §2, §3

[9] = system: crabgrass (Digitaria sanguinalis); test: Test C preemergence; conditions: for Plant response rating, Crabgrass: scale 0 to 100, 0 no effect, 100 complete control; for Plant response rating (0 to 100), Crabgrass: visual evaluation after 12 to 14 days
Source text: as §2, §3

[10] = system: kochia (Kochia scoparia); test: Test C preemergence; conditions: for Plant response rating, Kochia: scale 0 to 100, 0 no effect, 100 complete control; for Plant response rating (0 to 100), Kochia: visual evaluation after 12 to 14 days
Source text: as §2, §3

[11] = system: Surinam grass (Brachiaria decumbens); test: Test C preemergence; conditions: for Plant response rating, Surinam grass: scale 0 to 100, 0 no effect, 100 complete control; for Plant response rating (0 to 100), Surinam grass: visual evaluation after 12 to 14 days
Source text: as §2, §3

[12] = system: morningglory (Ipomoea hederacea); test: Test C preemergence; conditions: for Plant response rating, Morningglory: scale 0 to 100, 0 no effect, 100 complete control
Source text: as §2, §3

[13] = system: Nightshade; test: Test C preemergence; conditions: scale 0 to 100, 0 no effect, 100 complete control
Source text: as §2, §3

[14] = system: bermudagrass (Cynodon dactylon); test: Test C preemergence; conditions: for Plant response rating, Bermudagrass: scale 0 to 100, 0 no effect, 100 complete control; for Plant response rating (0 to 100 where 0 is no effect and 100 is complete control), Bermudagrass: visual evaluation after 12 to 14 days
Source text: as §2, §3

[15] = system: soybean (Glycine max); test: Test C preemergence; conditions: preemergence; for Plant response rating, Soybean: scale 0 to 100, 0 no effect, 100 complete control
Source text: as §2, §3

[16] = system: woolly cupgrass (Eriochloa villosa); test: Test C preemergence; conditions: for Plant response rating, Cupgrass, Woolly: scale 0 to 100, 0 no effect, 100 complete control; for Plant response rating (0 to 100), Cupgrass, Woolly: visual evaluation after 12 to 14 days
Source text: as §2, §3

[17] = system: cocklebur (Xanthium strumarium); test: Test C preemergence; conditions: for Plant response rating, Cocklebur: scale 0 to 100, 0 no effect, 100 complete control; for Plant response rating (0 to 100), Cocklebur: visual evaluation after 12 to 14 days
Source text: as §2, §3

[18] = system: goosegrass (Eleusine indica); test: Test C preemergence; conditions: for Plant response rating, Goosegrass: scale 0 to 100, 0 no effect, 100 complete control; for Plant response rating (0 to 100), Goosegrass: visual evaluation after 12 to 14 days
Source text: as §2, §3

[19] = system: johnsongrass (Sorghum halepense); test: Test C preemergence; conditions: for Plant response rating, Johnsongrass: scale 0 to 100, 0 no effect, 100 complete control; for Plant response rating (0 to 100), Johnsongrass: visual evaluation after 12 to 14 days
Source text: as §2, §3

[20] = system: yellow nutsedge (Cyperus esculentus); test: Test C preemergence; conditions: for Plant response rating, Nutsedge: scale 0 to 100, 0 no effect, 100 complete control
Source text: as §2, §3

[21] = Rate 500 g/ha, visual evaluation after 12 to 14 days
[22] = preemergence, Rate 500 g/ha, visual evaluation after 12 to 14 days

CC1(c2ccn(C3SCN(c4cccc(C(F)(F)F)c4)C3=O)n2)CC1 (stereo not drawn) [Compound 64]
Ducksalad plant response rating ([1]; Rate 250 g/ha): 90 | Ducksalad plant response rating ([1]; Rate 500 g/ha): 90 | Plant response rating, Ducksalad ([1]; Rate 62 g/ha): 0 | Plant response rating, Ducksalad ([1]; Rate 125 g/ha): 30 | Flatsedge plant response rating ([2]; Rate 250 g/ha): 100 | Flatsedge plant response rating ([2]; Rate 500 g/ha): 100 | Plant response rating, Flatsedge ([2]; Rate 62 g/ha): 100 | Plant response rating, Flatsedge ([2]; Rate 125 g/ha): 100 | Barnyardgrass plant response rating ([3]; Rate 250 g/ha): 80 | Barnyardgrass plant response rating ([3]; Rate 500 g/ha): 100 | Plant response rating, Barnyardgrass ([3]; Rate 62 g/ha): 20 | Plant response rating, Barnyardgrass ([3]; Rate 125 g/ha): 80 | Plant response rating, Foxtail, Giant ([4]; Rate 62 g/ha): 0 | Plant response rating (0 to 100), Foxtail, Giant ([4]; preemergence, Rate 250 g/ha): 100 | Plant response rating (0 to 100), Foxtail, Giant ([4]; preemergence, Rate 500 g/ha): 30 | Plant response rating, Foxtail, Giant ([4]; preemergence, Rate 125 g/ha): 50 | Plant response rating (0 to 100), Velvetleaf [5, 21]: 50 | Plant response rating, Velvetleaf ([5]; Rate 125 g/ha): 0 | Plant response rating, Velvetleaf ([5]; Rate 250 g/ha): 20 | Plant response rating (0 to 100), Ragweed, Common [6, 21]: 90 | Plant response rating, Ragweed, Common ([6]; Rate 125 g/ha): 50 | Plant response rating, Ragweed, Common ([6]; Rate 250 g/ha): 80 | Plant response rating (0 to 100), Pigweed [7, 21]: 100 | Plant response rating, Pigweed ([7]; Rate 125 g/ha): 100 | Plant response rating, Pigweed ([7]; Rate 250 g/ha): 100 | Plant response rating, Corn ([8]; Rate 62 g/ha): 0 | Plant response rating (0 to 100), Corn ([8]; preemergence, Rate 250 g/ha): 30 | Plant response rating (0 to 100), Corn ([8]; preemergence, Rate 500 g/ha): 40 | Plant response rating, Corn ([8]; preemergence, Rate 125 g/ha): 0 | Plant response rating, Crabgrass ([9]; Rate 62 g/ha): 100 | Plant response rating (0 to 100), Crabgrass ([9]; preemergence, Rate 250 g/ha): 100 | Plant response rating (0 to 100), Crabgrass ([9]; preemergence, Rate 500 g/ha): 100 | Plant response rating, Crabgrass ([9]; preemergence, Rate 125 g/ha): 100 | Plant response rating, Kochia ([10]; Rate 62 g/ha): 90 | Plant response rating (0 to 100), Kochia ([10]; preemergence, Rate 250 g/ha): 100 | Plant response rating (0 to 100), Kochia ([10]; preemergence, Rate 500 g/ha): 100 | Plant response rating, Kochia ([10]; preemergence, Rate 125 g/ha): 100 | Plant response rating, Surinam grass ([11]; Rate 62 g/ha): 0 | Plant response rating (0 to 100), Surinam grass ([11]; preemergence, Rate 250 g/ha): 90 | Plant response rating (0 to 100), Surinam grass ([11]; preemergence, Rate 500 g/ha): 100 | Plant response rating, Surinam grass ([11]; preemergence, Rate 125 g/ha): 50 | Plant response rating, Morningglory ([12]; Rate 62 g/ha): 40 | Plant response rating (0 to 100), Morningglory [12, 22]: 60 | Plant response rating, Morningglory ([12]; preemergence, Rate 125 g/ha): 40 | Plant response rating, Morningglory ([12]; preemergence, Rate 250 g/ha): 40 | Plant response rating, Nightshade ([13]; Rate 62 g/ha): 30 | Plant response rating, Nightshade ([13]; Rate 125 g/ha): 70 | Plant response rating, Nightshade ([13]; Rate 250 g/ha): 90 | Plant response rating, Bermudagrass ([14]; Rate 62 g/ha): 100 | Plant response rating (0 to 100 where 0 is no effect and 100 is complete control), Bermudagrass ([14]; preemergence, Rate 250 g/ha): 100 | Plant response rating (0 to 100 where 0 is no effect and 100 is complete control), Bermudagrass ([14]; preemergence, Rate 500 g/ha): 100 | Plant response rating, Bermudagrass ([14]; preemergence, Rate 125 g/ha): 100 | Plant response rating (0 to 100), Soybean [15, 21]: 30 | Plant response rating, Soybean ([15]; Rate 125 g/ha): 20 | Plant response rating, Soybean ([15]; Rate 250 g/ha): 20 | Plant response rating, Cupgrass, Woolly ([16]; Rate 62 g/ha): 30 | Plant response rating (0 to 100), Cupgrass, Woolly ([16]; preemergence, Rate 250 g/ha): 90 | Plant response rating (0 to 100), Cupgrass, Woolly ([16]; preemergence, Rate 500 g/ha): 100 | Plant response rating, Cupgrass, Woolly ([16]; preemergence, Rate 125 g/ha): 50 | Plant response rating, Cocklebur ([17]; Rate 62 g/ha): 0 | Plant response rating (0 to 100), Cocklebur ([17]; preemergence, Rate 250 g/ha): 20 | Plant response rating (0 to 100), Cocklebur ([17]; preemergence, Rate 500 g/ha): 30 | Plant response rating, Cocklebur ([17]; preemergence, Rate 125 g/ha): 0 | Plant response rating, Goosegrass ([18]; Rate 62 g/ha): 100 | Plant response rating (0 to 100), Goosegrass ([18]; preemergence, Rate 250 g/ha): 100 | Plant response rating (0 to 100), Goosegrass ([18]; preemergence, Rate 500 g/ha): 100 | Plant response rating, Goosegrass ([18]; preemergence, Rate 125 g/ha): 100 | Plant response rating, Johnsongrass ([19]; Rate 62 g/ha): 30 | Plant response rating (0 to 100), Johnsongrass ([19]; preemergence, Rate 250 g/ha): 90 | Plant response rating (0 to 100), Johnsongrass ([19]; preemergence, Rate 500 g/ha): 100 | Plant response rating, Johnsongrass ([19]; preemergence, Rate 125 g/ha): 70 | Plant response rating, Nutsedge ([20]; Rate 62 g/ha): 0 | Plant response rating (0 to 100), Nutsedge [20, 22]: 50 | Plant response rating, Nutsedge ([20]; preemergence, Rate 125 g/ha): 0 | Plant response rating, Nutsedge ([20]; preemergence, Rate 250 g/ha): 50
